Assay results published in patent US8076455B2, “Guanosine triphosphate (GTP)-binding protein-coupled receptor protein, BG37” (Merck Sharp & Dohme Corp., priority 2000, dated 2011).

Key:
Format in all cases: cell-based
[1] = molecular target: T1, human BG37 (Homo sapiens, UniProt Q8TDU6); assay: Assay of intracellular cAMP level (EIA) in human BG37-expressing cells (HEK/hBG37), steroid hormones; conditions: steroid hormone at various concentrations, 37° C. for 15 minutes
T1 construct: Human BG37 gene cut out, utilizing the BamHI-EcoRV site, from pCR2.1-BG37ORF was subcloned into the BamHI-EcoRV digested pKT52 vector; expressed in transfected cells
T1 sequence (Q8TDU6 1-330): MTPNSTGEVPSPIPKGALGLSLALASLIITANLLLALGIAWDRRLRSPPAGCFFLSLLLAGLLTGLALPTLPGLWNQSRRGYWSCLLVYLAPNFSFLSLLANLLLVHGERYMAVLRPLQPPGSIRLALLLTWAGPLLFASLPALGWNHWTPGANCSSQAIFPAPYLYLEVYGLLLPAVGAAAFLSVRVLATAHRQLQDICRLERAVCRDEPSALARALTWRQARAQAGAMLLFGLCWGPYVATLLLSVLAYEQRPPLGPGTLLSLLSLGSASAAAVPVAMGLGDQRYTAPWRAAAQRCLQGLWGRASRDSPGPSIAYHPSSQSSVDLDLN
Description: On the day before the measurement of the intracellular cAMP level, cells were re-plated at a cell density of 4×10^4 cells/well on a poly-D-lysin-coated 96-well plate (Becton Dickinson), and then incubated at 37° C. for another 24 hours.

[2] = molecular target: T1, human BG37; assay: Bile acid-dependent increase of intracellular cAMP level (HTRF) in cells expressing the human BG37; conditions: cells expressing the human BG37 (HEK/hBG37); reagent at various concentrations, 37° C. for 20 minutes
Description: The intracellular cAMP level in the presence of a ligand was measured to determine the increase of the intracellular cAMP level through G proteins bound to the seven-transmembrane receptor.
On the day before the measurement of the intracellular cAMP level, cells were re-plated at a cell density of 4×10^4 cells/well on a poly-D-lysin-coated 96-well plate (Becton Dickinson), and then incubated at 37° C. for another 24 hours. Cells of the stable cell line were rinsed twice with 1 mM 3-Isobutyl-1-Methylxanthine (IBMX) (Nacalai Tesque) containing Opti-MEM solution (GIBCO BRL) (Opti-MEM-BSA-IBMX solution), and then incubated at 37° C. for 20 minutes. After removing the supernatant, Opti-MEM-IBMX solution containing a reagent at various concentrations was added thereto. The resulting mixture was incubated at 37° C. for 20 minutes. Then, the cells were lysed with 0.5% Triton X-100 to determine the level of intracellular cAMP.
Measurement of the intracellular cAMP level was carried out using cyclic AMP kit (HTRF) (Nihon Schering) according to the provided manual.

[3] = tested on: mock-transfected cells which contained the vector alone; assay: Intracellular cAMP level (EIA) in mock-transfected cells containing the vector alone (control cells); conditions: various concentrations, 37° C. for 15 minutes
Description: Intracellular cAMP levels were determined using the method of Zlokarmik et al. (Science 279, 84 (1998)). The intracellular cAMP level in cells that reacted with the ligand was measured to determine the increase of intracellular cAMP level through G proteins bound to the seven-transmembrane receptor.
On the day before the measurement of the intracellular cAMP level, cells were re-plated at a cell density of 4×10^4 cells/well on a poly-D-lysin-coated 96-well plate (Becton Dickinson), and then incubated at 37° C. for another 24 hours. Cells of the stable cell line were rinsed twice with 0.1% BSA (SIGMA) and 1 mM 3-Isobutyl-1-Methylxanthine containing Opti-MEM solution (GIBCO BRL: Opti-MEM-BSA-IBMX solution) (Nacalai Tesque Inc.: IBMX), and then incubated at 37° C. for 20 minutes. After removing the supernatant, Opti-MEM-BSA-IBMX solution containing at various concentrations a steroid hormone, such as progesterone, was added thereto. The resulting mixture was incubated at 37° C. for 15 minutes. Then, the cells were lysed with Lysis Buffer to measure the level of intracellular cAMP.
The measurement of the intracellular cAMP level was carried out using cyclic AMP enzyme immuno-assay (EIA) system (Amersham Pharmacia Biotech) according to the provided manual.

For `C[C@]12CCC(=O)C=C1CC[C@@H]1[C@@H]2CC[C@]2(C)C(=O)CC[C@@H]12` [androstenedione], the “intracellular cAMP level” value [1] was “increased in a concentration-dependent manner”.

For `C[C@H](CCC(=O)O)[C@H]1CC[C@H]2[C@@H]3[C@H](O)C[C@@H]4C[C@H](O)CC[C@]4(C)[C@H]3CC[C@]12C` [chenodeoxycholic acid], the “intracellular cAMP level” value [2] was “elevated”.

`C[C@H](CCC(=O)O)[C@H]1CC[C@H]2[C@@H]3[C@H](O)C[C@@H]4C[C@H](O)CC[C@]4(C)[C@H]3C[C@H](O)[C@]12C` [cholic acid] was tested, and the “intracellular cAMP level” value [2] was “elevated”.

With `CC(=O)[C@H]1CC[C@H]2[C@@H]3CCC4=CC(=O)CC[C@]4(C)[C@H]3CC[C@]12C` [progesterone] the “concentration-dependent increase of intracellular cAMP” value [3] was “not observed”.
